The values below come from patent US20110136858A1, “Preferred Combination Therapy” (priority 2009, published 2011).

One data set concerns TGF-beta1. Kind of data set: Functional assay for TGF-beta Production Stimulator activity: suppression of smooth muscle cell proliferation reversible by neutralising anti-TGF-beta1 antibody. Format: cell-based, rat. The following applies: for EC50: rat aortic smooth muscle cells in culture, 72 hrs, suppression of proliferation reversible by neutralising antibodies to TGF-beta1, from dose-response curves of FIG. 2, read-out: ED50 for the TGF-beta Production Stimulator activity. From the text:
In order compare Droloxifene with other triphenylethylenes, we have exploited a functional assay for TGF-beta1 activity. Alternative approaches are less suitable for various reasons: it is not possible to directly measure TGF-beta protein production by cultured cells in response to triphenylethylenes because the TGF-beta that is produced remains associated with the cells or the extracellular matrix and is therefore not available for assay (for example, by ELISA) in the conditioned medium from the cultured cells. […] The specificity of such an assay is achieved by comparing the rate of proliferation of the smooth muscle cells in the presence or absence of a validated, highly specific neutralising antibody against TGF-beta (or TGF-beta1, as required).
The cells were prepared by enzyme dispersion of isolated rat aortae exactly as described previously (Grainger et al (1993) Biochem. J. 294(1):109-12 and the references therein). The cells were cultured (37° C.; 5% CO2) in DMEM+10% foetal calf serum (FCS), and subcultured every 4 days at 1:2 dilution, using 0.02% trypsin/EDTA (Gibco). Experiments were performed between the sixth and twentieth subculture.
For the experiments, the cells were subcultured into 12-well cluster plates, and allowed to grow for 24 hrs. […] The cells were then incubated for 72 hrs. All treatment conditions were established in triplicate. One triplicate of cells was counted (see below) at 0 h. All other wells were counted at 72 hrs.
The number of cells in each well was determined as follows: the well was washed three times with serum-free DMEM, aspirated and then incubated with 100 μl of trypsin/EDTA solution (Gibco) for 2 minutes at 37° C. Complete release of the cell monolayer was confirmed microscopically. The cell density in portion of this suspension was determined by counting using an Improved Neubauer hameocytometer, ensuring the suspension was uniform by gentle pipetting, prior to sampling. The cell density was converted to the absolute number of cells present in the well by multiplying the number of cells per μl by the total volume of suspension (100 μl). For each condition, the mean number of cells at the end of the experiment was calculated by meaning the number of cells in each well of triplicate.
The extent of proliferation of the cell culture under each condition was determined by subtracting the mean number of cells at time Oh from the mean number of cells under that condition at time 72 h. The amount of TGF-beta1 activity under each condition was determined by subtracting the inhibition of growth achieved in the presence of neutralising anti-TGF-beta1 antibody (AB-101-NA; R&D Systems) from the inhibition of growth achieved in the absence of antibody.

The nature of data set [1]: Effect of co-administration of triphenylethylenes on clopidogrel metabolism in vivo (CLP*-acetamide by LC-MS). Also noted: species or system Sprague-Dawley rats. The following applies: rats, 0.1 to 10 mg/kg analog with 10 mg/kg clopidogrel. How it is done: Adult male Sprague-Dawley rats are dosed with various triphenylethylenes at different doses from 0.1 mg/kg to 10 mg/kg (spanning the likely doses such compounds would be used in man), or with vehicle only, and simultaneously dosed with 10 mg/kg clopidogrel, both by oral gavage. Blood samples are drawn through an in-dwelling jugular catheter at 0.5, 1, 2, 4, 8 and 24 hrs post-dose, and serum is prepared by conventional methods well known in the art.
The level of CLP*, the active metabolite of clopidogrel is then determined in each blood sample by LC-MS by collecting the blood samples in tubes containing the thiol alkylating agent iodeoacetamide. Iodoacetamide reacts with CLP* to generate a stable product which can be detected by LC-MS using standard methodology well known in the art. An authentic sample of the acetamide adduct of CLP* is used to quantify the level of CLP*-acetamide in the sample. […] The concentration of CLP*-acetamide adduct can therefore be assumed to be proportional to the concentration of CLP*. The pharmacokinetics of CLP*-acetamide are then compared under the different conditions, using standard pharmacokinetics models implemented with WinNonLin.

The conditions of data set [2]: chronic Tamoxifen users; translated from the relative risk; cited from earlier work.

The structures appear in SMILES notation.

With `CC/C(=C(/c1ccc(OCCN(C)C)cc1)c1cccc(O)c1)c1ccccc1` [Droloxifene, (E)-1-(4′-(2-dimethylaminoethoxy)phenyl)-1-(3-hydroxyphenyl)-2-phenylbut-1-ene], the EC50 with TGF-beta1 turned out to be 3 µM. In data set [1], the “effect on clopidogrel metabolism (in words)” value is “no effect”.

Regarding `CC/C(=C(\c1ccc(I)cc1)c1ccc(OCCN2CCCC2)cc1)c1ccccc1` [Idoxifene], in the data set with TGF-beta1, the EC50 was 5 µM.

Consider `O=C(c1ccc(OCCN2CCCCC2)cc1)c1c(-c2ccc(O)cc2)sc2cc(O)ccc12` [Raloxifene], for which, in the data set on TGF-beta1 (rat aortic smooth muscle cells), the “activity as Production Stimulator for TGF-beta1 (in words)” value was “does not have measurable activity”. Besides, the EC50 in the data set on TGF-beta1 is over 100 µM.

Regarding `CC/C(=C(\c1ccccc1)c1ccc(OCCN(C)C)cc1)c1ccccc1` [Tamoxifen], the “reduction in risk of death from myocardial infarction” value in data set [2] is 33%.

For the molecule `CN(C)CCOc1ccc(/C(=C(/CCCl)c2ccccc2)c2ccccc2)cc1` [Toremifene], the EC50 in the data set on TGF-beta1 was 10 µM.
